Laboratory results as given in patent US8394799B2, “Compounds that inhibit HIF-1 activity, the method for preparation thereof and the pharmaceutical composition containing them as an effective component” (Korea Research Institute of Bioscience and Biotechnology, priority 2006, dated 2013).

Columns and labels:
[1] = test system: HIF-1; assay: Assay of IC50, AGS cells (HRE-luciferase transfected); format: cell-based; conditions: Homo sapiens
Excerpt: (§1) Six tandem repeats of HRE (hypoxia Responsive Element 5′-ACGTG-3′), which is present in a human VEGF gene, was inserted into the multi-cloning region of a pGL3-basic vector (Promega) containing a luciferase gene as a reporter gene to produce a recombinant pGL3-HRE-luciferase vector which was then used to assay the compounds prepared in the above Examples for inhibition activity against HIF-mediated transcriptional activity.

[2] = test system: HIF-1; assay: Assay of IC50, Hep3B cells (HRE-luciferase transfected); format: cell-based; conditions: Homo sapiens
Excerpt: as §1

[3] = test system: HIF-1; assay: Assay of IC50, SK-Hep-1 cells (same manner); format: cell-based; conditions: Homo sapiens, SK-HEP1; SK-Hep-1 cell line, compounds 0.01 to 100 μM for 16 hrs
Excerpt: as §1

[4] = test system: HIF-1; assay: HRE reporter assay, HIF activity % remaining, AGS cells; format: cell-based, human; conditions: summary in words of the data of Table 1 and Table 2; cell line not stated
Excerpt: as §1
The hepatocellular carcinoma cell line HepG2 or Hep3B, both available from ATCC (American Type Culture Collection), and the gastric carcinoma cell line AGS, available from ATCC, were grown at 70% confluency in culture dishes and co-transfected with an internal control vector (pRL-CMV, Promega) and the recombinant pGL3-HRE-luciferase vector using Lipofectamine Plus Reagent (Invitrogen). HepG2 and AGS cells were treated with the compound of Chemical Formula 1A while Hep3B and AGS cells were treated with the compound of Chemical Formula 1B. The compound of Chemical Formula 1A was used in a concentration of 10 μm for HepG2 or AGS cells. The compound of Chemical Formula 1B was used in a concentration of 30 μM for Hep3B and in a concentration of 10 μM for AGS cells. […] The compounds prepared in Examples above were assayed for inhibition activity against HIF-1 by measuring the activity of the luciferase, induced in hypoxia, using a Dual-luciferase reporter assay system (Promoga). In this regard, the luciferase activity was measured for 10 sec using a Microlumat Plus luminometer (EG&G Berthold). In the meanwhile, the renilla luciferase activity from the control vector PRL-CMV (Promega) was measured to normalize the data obtained.
On the basis of the renilla luciferase activity, the HIF activity % remaining after treatment with the compounds was corrected.

[5] = test system: metastatic breast carcinoma cell line MDA-MB-435; assay: In vivo anticancer activity in nude mice implanted with MDA-MB-435; conditions: for inhibition of the growth of the cancer cells compared to the control: once a day, MDA-MB-435 in nude mice
Excerpt: Female nude mice 5-6 weeks old (Crj:BALB/c nu/nu, Charles River) were bred in germ-free breeding rooms maintained at constant temperature and humidity. The nude mice were anesthetized before incision of the chest skin. The metastatic breast carcinoma cell line MDA-MB-435, obtained from DR D. R. Welch, Univ. Alabama, was implanted at a count of 10^6 cells/mouse into the mammary gland fat pad, and the incisions were then closed with surgical clips. The nude mice were divided into test groups and a control group, each consisting of 6 mice. […] For the control group, Solution A alone was used at a dose of 100 μl once a day. Thereafter, tumor volumes and body weights were measured once a week. Tumor volumes were calculated according to the following Mathematic Formula 1. Tumor Volume (mm^3)=(Length of Long Axis,mm)×(Length of Short Axis,mm)^2×0.5 <Mathematic Formula 1>

Row | Compound | IC50 [1] | IC50 [2] | IC50 [3] | also measured
1 | O=C(COc1ccc(C23CC4CC(CC(C4)C2)C3)cc1)Nc1cc(C(=O)O)ccn1 [Example 98, 2-[2-(4-adamantan-1-yl-phenoxy)acetylamino]-isonicotinic acid] |  | 1.03 µM | 2000 nM | 
2 | CC(C)(C)c1ccc(OCC(=O)Nc2cccc(C(N)=O)c2)cc1 [Example 30, 3-[2-(4-tert-butyl-phenoxy)-acetyl-amino]-benzamide] | > 30 µM | > 30 µM |  | 
3 | O=C(COc1ccc(C23CC4CC(CC(C4)C2)C3)cc1)Nc1cc(C(=O)NCc2ccco2)ccc1O [Example 67, 3-[2-(4-adamantan-1-yl-phenoxy)-acetylamino]-N-furan-2-ylmethyl-4-hydroxy-benzamide] | 5.9 µM | 12.6 µM |  | 
4 | O=C(COc1ccc(I)cc1)Nc1cccc(C(=O)O)c1 [Example 58, 3-[2-(4-iodo-phenoxy)-acetylamino]-benzoic acid] | 3.5 µM | 7.2 µM |  | 
5 | O=C(COc1ccc(Br)cc1)Nc1cccc(C(=O)O)c1 [Example 57, 3-[2-(4-bromo-phenoxy)-acetylamino]-benzoic acid] | 1.6 µM | > 30 µM |  | 
6 | CN(C)CCNC(=O)c1ccc(O)c(NC(=O)COc2ccc(C34CC5CC(CC(C5)C3)C4)cc2)c1 [Example 68, 3-[2-(4-adamantan-1-yl-phenoxy)-acetylamino]-N-(2-dimethylamino-ethyl)-4-hydroxy-benzamide] | 3 µM | 51.7 µM |  | 
7 | O=C(COc1ccc(C23CC4CC(CC(C4)C2)C3)cc1)Nc1cc(C(=O)NCCCn2ccnc2)ccn1 [Example 107, 2-[2-(4-adamantan-1-yl-phenoxy)-acetylamino]-N-(3-imidazole-1-yl-propyl)-isonicotinamide] |  |  | < 1000 nM | 
8 | O=C(COc1ccc(Cl)cc1Cl)Nc1cc(C(=O)NCc2ccco2)ccc1O [Example 78, 3-[2-(2,4-dichloro-phenoxy)-acetylamino]-N-fan-2-ylmethyl-4-hydroxy-benzamide] | > 30 µM | 23.2 µM |  | 
9 | O=C(COc1ccc(C23CC4CC(CC(C4)C2)C3)cc1)Nc1cccc(C(=O)Nc2ccc(Cl)cc2)c1 [Example 70, 3-[2-(4-adamantan-1-ylphenoxy)-acetylamino]-N-(4-chloro-phenyl)-benzamide] | 9.5 µM | > 30 µM |  | 
10 | COC(=O)c1cccc(NC(=O)COc2ccc(C34CC5CC(CC(C5)C3)C4)cc2)c1 [Example 2, 3-[2-(4-Adaman-1-yl-phenoxy)-acetylamino]-benzoic acid methyl ester] | 7.4 µM | 9.9 µM |  | 
11 | NC(=O)c1ccc(O)c(NC(=O)COc2ccc(C34CC5CC(CC(C5)C3)C4)cc2)c1 [Example 65, 3-[2-(4-adamantan-1-yl-phenoxy)-acetylamino]-4-hydroxy-benzamide] | 1.5 µM | > 30 µM |  | 
12 | O=C(COc1ccc(C23CC4CC(CC(C4)C2)C3)cc1)Nc1cc(C(=O)O)ccc1O [Example 48, 3-[2-(4-Adamantan-1-yl-phenoxy)-acetylamino]-4-hydroxy-benzoic acid] | 0.35 µM | 0.4 µM |  | inhibition activity against the transcription mediated by HIF-1, induced in hypoxia [4]: excellent inhibition activity
13 | Cc1ccc(OCC(=O)Nc2cccc(C(N)=O)c2)cc1 [Example 31, 3-(2-p-tolyloxy-acetyl-amino)-benzamide] | > 30 µM | > 30 µM |  | 
14 | NC(=O)c1cccc(NC(=O)COc2ccc(C34CC5CC(CC(C5)C3)C4)cc2)c1 [Example 23, 3-[2-(4-Adamantan-1-yl-phenoxy)acetyl-amino]-benzamide] | 1 µM | 4.3 µM |  | inhibition activity against the transcription mediated by HIF-1, induced in hypoxia [4]: excellent inhibition activity
15 | O=C(COc1ccc(C23CC4CC(CC(C4)C2)C3)cc1)Nc1cc(C(=O)NCc2ccco2)ccn1 [Example 105, 2-[2-(4-adamantan-1-yl-phenoxy)-acetylamino]-N-furan-2-ylmethyl-isonicotinamide] |  |  | > 30000 nM | 
16 | O=C(COc1ccc(C23CC4CC(CC(C4)C2)C3)cc1)Nc1cc(C(=O)Nc2ccc(Cl)cc2)ccn1 [Example 104, 2-[2-(4-adamantan-1-yl-phenoxy)-acetylamino]-N-(4-chloro-phenyl)-isonicotinamide] |  |  | 2500 nM | 
17 | CN(C)C(=O)c1ccc(O)c(NC(=O)COc2ccc(C34CC5CC(CC(C5)C3)C4)cc2)c1 [Example 66, 3-[2-(4-adamantan-1-yl-phenoxy)-acetylamino]-4-hydroxy-N,N-dimethyl-benzamide] | > 30 µM | > 30 µM |  | 
18 | NC(=O)c1cccc(NC(=O)COc2ccc([N+](=O)[O-])cc2)c1 [Example 32, 3-[2-(4-nitro-phenoxy)-acetyl-amino)benzamide] | > 30 µM | > 30 µM |  | 
19 | O=C(COc1ccc(C23CC4CC(CC(C4)C2)C3)cc1)Nc1cc(C(=O)NCCc2ccncc2)ccn1 [Example 106, 2-[2-(4-adamantan-1-yl-phenoxy)-acetylamino]-N-(2-pyridine-4-yl-ethyl)-isonicotinamide] |  |  | 3400 nM | 
20 | O=C(COc1ccc(C23CC4CC(CC(C4)C2)C3)cc1)Nc1cccc(C(=O)NCCc2ccncc2)c1 [Example 74] | 3.1 µM | 8.2 µM |  | 
21 | O=C(COc1ccc(C23CC4CC(CC(C4)C2)C3)cc1)Nc1cncc(C(=O)NCCCn2ccnc2)c1 [Example 103, 5-[2-(4-adamantan-1-yl-phenoxy)-acetylamino]-N-(3-imidazole-1-yl-propyl)nicotinamide] |  |  | 1900 nM | 
22 | O=C(COc1ccc(Cl)cc1Cl)Nc1cc(C(=O)O)ccn1 [Example 95, 2-[2-(2,4-dichloro-phenoxy)-acetylamino]-isonicotinic acid] |  |  |  | inhibition of the growth of the cancer cells compared to the control ([5]; 20 mg/kg): 4.3%; deaths in six mice of each group ([5]; 50 mg/kg): No dead were observed; inhibition of the growth of the cancer cells compared to the control ([5]; 50 mg/kg): 36.5%
23 | O=C(COc1ccc(C23CC4CC(CC(C4)C2)C3)cc1)Nc1cc(C(=O)NCCCN2CCOCC2)ccc1O [Example 69] | > 30 µM | > 30 µM |  | 

Continued, in another order:

Row | IC50 [1] | IC50 [2] | IC50 [3] | Compound | also measured
24 | > 30 µM | > 30 µM |  | O=C(COc1ccc(C23CC4CC(CC(C4)C2)C3)cc1)Nc1cccc(C(=O)Nc2ccc3ccccc3c2)c1 [Example 72, 3-[2-(4-adamantan-1-yl-phenoxy)-acetylamino]-N-naphtalene-2-yl-benzamide] | 
25 | 35 µM | > 30 µM |  | O=C(COc1ccc(Cl)cc1Cl)Nc1cccc(C(=O)NCc2ccco2)c1 [Example 77, 3-[2-(2,4-dichloro-phenoxy)-acetylamino]-N-furan-2-ylmethyl-benzamide] | 
26 | 5 µM | 5.9 µM | > 30000 nM | COC(=O)c1cncc(NC(=O)COc2ccc(C34CC5CC(CC(C5)C3)C4)cc2)c1 [Example 87, 5-[2-(4-adamantan-1-yl-phenoxy)acetylamino]-nicotinic acid methyl ester] | 
27 | 2 µM | 1.2 µM | 1030 nM | COC(=O)c1ccnc(NC(=O)COc2ccc(C34CC5CC(CC(C5)C3)C4)cc2)c1 [Example 86, 2-[2-(4-adamantan-1-yl-phenoxy)acetylamino]-isonicotinic acid methyl ester] | 
28 |  |  | > 30000 nM | O=C(COc1ccc(C23CC4CC(CC(C4)C2)C3)cc1)Nc1cncc(C(=O)NCCc2ccncc2)c1 [Example 102, 5-[2-(4-adamantan-1-yl-phenoxy)acetylamino]-N-(2-pyridine-4-yl-ethyl)nicotinamide] | 
29 | > 30 µM | > 30 µM |  | CC(=O)c1ccc(OCC(=O)Nc2cccc(C(=O)O)c2)cc1 [Example 60, 3-[2-(4-acetyl-phenoxy)-acetylamino]-benzoic acid] | 
30 | > 30 µM | > 30 µM |  | O=C(COc1ccc(F)cc1)Nc1cccc(C(=O)O)c1 [Example 51, 3-[2-(4-fluoro-phenoxy)acetylamino]-benzoic acid] | 
31 |  |  | 11900 nM | NC(=O)c1cncc(NC(=O)COc2ccc(C34CC5CC(CC(C5)C3)C4)cc2)c1 [Example 112, 5-[2-(4-adamantan-1-yl-phenoxy)acetylamino]-nicotinamide] | 
32 | 10 µM | > 30 µM |  | O=C(COc1ccc(Cl)cc1)Nc1cccc(C(=O)O)c1 [Example 52, 3-[2-(4-chloro-phenoxy)-acetylamino]-benzoic acid] | 
33 | 2 µM | 14.1 µM |  | O=C(COc1ccc(C23CC4CC(CC(C4)C2)C3)cc1)Nc1cccc(C(=O)NCc2ccco2)c1 [Example 73] | 
